Results published in US20120323164A1, “PHOTODYNAMIC THERAPY WITH PHTHALOCYANINES AND RADICAL SOURCES” (Case Western Reserve University, priority 2011, published 2012).
Several values for one entry are separate records, joined by “and”; a condition that tells them apart may be missing. Equal values may be shown once.

Tests used:
[1] = Photodecomposition of Al and Si phthalocyanines in toluene in the presence of squalene under white light; type: physicochemical; conditions: toluene ~9 μM, squalene 1:1000 mole ratio, white light 1.2 kJ/s/m^2, air
Experimental: The beam intensity was checked before each measurement.
Solutions for the photodecomposition experiments were prepared as follows.

[2] = Photodecomposition of phthalocyanines in toluene under white light, no added radical source; conditions: for photostability (in words): white light, toluene
Experimental: The distance between the cuvette face and the lamp filament was 30 cm. Determination of the beam intensity at the cuvette face was made with a powermeter (Powermax, pm10, Coherent, Santa Clara, Calif.). The beam intensity was checked before each measurement.
Solutions for the photodecomposition experiments were prepared as follows. […] This assumption was justified on the basis that all of the silicon phthalocyanines studied contained simple, unsubstituted phthalocyanine rings. The extinction coefficients of the aluminum phthalocyanines were assumed to be 2.3×10^5, the extinction coefficient of AlPcOSi(CH3)2(CH2)3N(CH3)2, Pc 1.
The absorbance of the Q band of the solution, A, was determined with a spectrophotometer (Lambda 25, Perkin Elmer, Shelton, Conn.; fused silica cuvettes, 1.00 cm, 3.5 mL, Fisher Scientific). From A, ε, the cuvette path length, b, and Beer's law, the concentration of the solution, c, was determined. The solution was then diluted with toluene to a concentration of 9.2 μM. To verify that this was the concentration of the solution, its absorbance was measured again.
In a typical determination, the solution (3.00 mL) was placed in a cuvette (1.00 cm, 3.5 mL, Fisher Scientific, Pittsburgh, Pa.) and its absorbance was measured with the spectrometer (Lambda 25) before irradiation and at 2, 4, 6 and 8 h.
where A0 is the absorbance of the solution at time 0, and At is the absorbance at time t.

[3] = time 2 h, radiation 86 kJ/mol × 10^−6
[4] = time 4 h, radiation 172 kJ/mol × 10^−6
[5] = time 6 h, radiation 258 kJ/mol × 10^−6
[6] = time 8 h, radiation 344 kJ/mol × 10^−6
[7] = time 0 h, toluene ~9 μM, no added alkene, white light 1.2 kJ/s/m^2
[8] = time 2 h, radiation 86 kJ/mol × 10^−6, toluene ~9 μM, no added alkene, white light 1.2 kJ/s/m^2
[9] = time 4 h, radiation 172 kJ/mol × 10^−6, toluene ~9 μM, no added alkene, white light 1.2 kJ/s/m^2
[10] = time 6 h, radiation 258 kJ/mol × 10^−6, toluene ~9 μM, no added alkene, white light 1.2 kJ/s/m^2
[11] = time 8 h, radiation 344 kJ/mol × 10^−6, toluene ~9 μM, no added alkene, white light 1.2 kJ/s/m^2

| decomp (%) ([1]; time 0 h) | decomp (%) [1, 3] | decomp (%) [1, 4] | decomp (%) [1, 5] | decomp (%) [1, 6] | Compound | decomp (%) [2, 7] | decomp (%) [2, 8] | decomp (%) [2, 9] | decomp (%) [2, 10] | decomp (%) [2, 11] | photostability (in words) ([2]; no added alkene) | decomp (%) [2] | decomposition rate relative to bis(α-linolenoxy)silicon phthalocyanine [2] | stability in the dark ([2]; in the dark) |
| --- | --- | --- | --- | --- | --- | --- | --- | --- | --- | --- | --- | --- | --- | --- |
| 0% | 12% | 23% | 34% | 44% | C[Si](C)(CCCI)O[Si]1(O)n2c3c4ccccc4c2N=C2N=C(N=c4c5ccccc5c(n41)=NC1=NC(=N3)c3ccccc31)c1ccccc12 (stereo not drawn) [Pc 58, SiPc[OSiMe2(CH2)3I](OH)] | – | – | – | – | – | – | – | – | – |
| 0% | 9% | 14% | 20% | 26% | CCCCCC[Si](CCCCCC)(CCCCCC)O[Si]1(O[Si](CCCCCC)(CCCCCC)CCCCCC)n2c3c4ccccc4c2N=C2N=C(N=c4c5ccccc5c(n41)=NC1=NC(=N3)c3ccccc31)c1ccccc12 [Pc 162, SiPc(OSiHx3)2] | – | – | – | – | – | – | – | – | – |
| 0% | 16% | 26% | 34% | 42% | CCCCCC[Si](CCCCCC)(CCCCCC)O[Si]1(O)n2c3c4ccccc4c2N=C2N=C(N=c4c5ccccc5c(n41)=NC1=NC(=N3)c3ccccc31)c1ccccc12 (stereo not drawn) [Pc 252, SiPc(OSiHx3)(OH)] | – | – | – | – | – | – | – | – | – |
| 0% | 11% | 19% | 27% | 36% | C[Si](C)(C)O[Si]1(O[Si](C)(C)C)n2c3c4ccccc4c2N=C2N=C(N=c4c5ccccc5c(n41)=NC1=NC(=N3)c3ccccc31)c1ccccc12 [Pc 280, SiPc(OSiMe3)2] | – | – | – | – | – | – | – | – | – |
| 0% | 5% | 9% | 13% | 17% | CC[Si](CC)(CC)O[Si]1(O[Si](CC)(CC)CC)n2c3c4ccccc4c2N=C2N=C(N=c4c5ccccc5c(n41)=NC1=NC(=N3)c3ccccc31)c1ccccc12 [Pc 281, SiPc(OSiEt3)2] | – | – | – | – | – | – | – | – | – |
| 0% | 3% | 4% | 6% | 7% | CCC[Si](CCC)(CCC)O[Si]1(O[Si](CCC)(CCC)CCC)n2c3c4ccccc4c2N=C2N=C(N=c4c5ccccc5c(n41)=NC1=NC(=N3)c3ccccc31)c1ccccc12 [Pc 282, SiPc(OSiPr3)2] | – | – | – | – | – | – | – | – | – |
| 0% | 24% | 44% | 63% | 77% | C[SiH2]O[Si]1(O[SiH2]C)n2c3c4ccccc4c2N=C2N=C(N=c4c5ccccc5c(n41)=NC1=NC(=N3)c3ccccc31)c1ccccc12 (stereo not drawn) [Pc 283, SiPc(OSiH2Me)2] | – | – | – | – | – | – | – | – | – |
| 0% | 8% | 16% | 23% | 30% | CCC[Si](CCC)(CCC)[O][Al]1[n]2c3c4ccccc4c2N=C2N=C(N=c4c5ccccc5c([n]41)=NC1=NC(=N3)c3ccccc31)c1ccccc12 [Pc 285, AlPcOSiPr3] | – | – | – | – | – | – | – | – | – |
| 0% | 10% | 17% | 23% | 29% | CCCCCC[Si](CCCCCC)(CCCCCC)[O][Al]1[n]2c3c4ccccc4c2N=c2c4ccccc4c([n]21)=NC1=NC(=NC2=NC(=N3)c3ccccc32)c2ccccc21 [Pc 286, AlPcOSiHx3] | – | – | – | – | – | – | – | – | – |
| 0% | 10% | 15% | 21% | 26% | CCCCCCCC[Si](CCCCCCCC)(CCCCCCCC)O[Si]1(O[Si](CCCCCCCC)(CCCCCCCC)CCCCCCCC)n2c3c4ccccc4c2N=C2N=C(N=c4c5ccccc5c(n41)=NC1=NC(=N3)c3ccccc31)c1ccccc12 [Pc 308, SiPc(OSiOct3)2] | – | – | – | – | – | – | – | – | – |

Continued, compound first:

| Compound | decomp (%) ([1]; time 0 h) | decomp (%) [1, 3] | decomp (%) [1, 4] | decomp (%) [1, 5] | decomp (%) [1, 6] | decomp (%) [2, 7] | decomp (%) [2, 8] | decomp (%) [2, 9] | decomp (%) [2, 10] | decomp (%) [2, 11] | photostability (in words) ([2]; no added alkene) | decomp (%) [2] | decomposition rate relative to bis(α-linolenoxy)silicon phthalocyanine [2] | stability in the dark ([2]; in the dark) |
| --- | --- | --- | --- | --- | --- | --- | --- | --- | --- | --- | --- | --- | --- | --- |
| CN(C)CCC[Si](C)(C)O[Si]1(O)n2c3c4ccccc4c2N=C2N=C(N=c4c5ccccc5c(n41)=NC1=NC(=N3)c3ccccc31)c1ccccc12 (stereo not drawn) [Pc 4, HOSiPcOSi(CH3)2(CH2)3N(CH3)2] | 0% | 57% | 81% | 92% | 96% | 0% | 11% | 12% | 12% | 13% | – | – | – | – |
| CN(C)CCC[Si](C)(C)O[Si]1(O[Si](C)(C)CCCN(C)C)n2c3c4ccccc4c2N=C2N=C(N=c4c5ccccc5c(n41)=NC1=NC(=N3)c3ccccc31)c1ccccc12 [Pc 12, SiPc[OSi(CH3)2(CH2)3N(CH3)2]2] | – | – | – | – | – | 0% | 19% and 18% | 20% and 19% | 21% | 21% | – | – | – | – |
| CN(C)CCCCCC[Si](C)(C)O[Si]1(O[Si](C)(C)CCCCCCN(C)C)n2c3c4ccccc4c2N=C2N=C(N=c4c5ccccc5c(n41)=NC1=NC(=N3)c3ccccc31)c1ccccc12 [Pc 85, SiPc[OSi(CH3)2(CH2)6N(CH3)2]2] | – | – | – | – | – | 0% | 5% | 5% | 5% | 5% | – | – | – | – |
| COCCC[Si](C)(C)O[Si]1(O[Si](C)(C)CCCOC)n2c3c4ccccc4c2N=C2N=C(N=c4c5ccccc5c(n41)=NC1=NC(=N3)c3ccccc31)c1ccccc12 [Pc 92, SiPc[OSi(CH3)2(CH2)3OCH3]2] | – | – | – | – | – | 0% | 1% | 1% | 1% | 1% | – | – | – | – |
| CSCCC[Si](C)(C)O[Si]1(O[Si](C)(C)CCCSC)n2c3c4ccccc4c2N=C2N=C(N=c4c5ccccc5c(n41)=NC1=NC(=N3)c3ccccc31)c1ccccc12 [Pc 97, SiPc[OSi(CH3)2(CH2)3SCH3]2] | – | – | – | – | – | 0% | 41% | 42% | 43% | 44% | – | – | – | – |
| C[Si](C)(CCCN(c1ccccc1)c1ccccc1)O[Si]1(O[Si](C)(C)CCCN(c2ccccc2)c2ccccc2)n2c3c4ccccc4c2N=C2N=C(N=c4c5ccccc5c(n41)=NC1=NC(=N3)c3ccccc31)c1ccccc12 [Pc 159, SiPc[OSi(CH3)2(CH2)3N(C6H5)2]2] | – | – | – | – | – | 0% | 0% | 0% | 0% | 1% | quite stable under light | – | – | – |
| C=CCCCC[Si](C)(C)O[Si]1(O[Si](C)(C)CCCCC=C)n2c3c4ccccc4c2N=C2N=C(N=c4c5ccccc5c(n41)=NC1=NC(=N3)c3ccccc31)c1ccccc12 [Pc 270, SiPc[OSi(CH3)2(CH2)4CH═CH2]2] | – | – | – | – | – | 0% | 1% | 2% | 2% | 3% | – | – | – | – |
| C=CC[Si](C)(C)O[Si]1(O[Si](C)(C)CC=C)n2c3c4ccccc4c2N=C2N=C(N=c4c5ccccc5c(n41)=NC1=NC(=N3)c3ccccc31)c1ccccc12 [Pc 271, SiPc[OSi(CH3)2CH2CH═CH2]2] | – | – | – | – | – | 0% | 6% | 10% | 14% | 16% | – | – | – | – |
| CCCCCCCCCCCCCCCCCC(=O)O.CCCCCCCCCCCCCCCCCC(=O)O.CN(C)CCC[Si](C)(C)O[Si]1(O[Si](C)(C)CCCN(C)C)n2c3c4ccccc4c2N=C2N=C(N=c4c5ccccc5c(n41)=NC1=NC(=N3)c3ccccc31)c1ccccc12 [Pc 287, SiPc[OSi(CH3)2(CH2)3NH(CH3)2]2^2+[OC(O)(CH2)17CH3]2^−] | – | – | – | – | – | 0% | 19% | 20% | 21% | 21% | – | – | – | – |
| CC1=C(/C=C/C(C)=C/C=C/C(C)=C/C(=O)O[Si]2(OC(=O)/C=C(C)/C=C/C=C(C)/C=C/C3=C(C)CCCC3(C)C)n3c4c5ccccc5c3N=C3N=C(N=c5c6ccccc6c(n52)=NC2=NC(=N4)c4ccccc42)c2ccccc23)C(C)(C)CCC1 (stereo not drawn) [Pc 301, SiPc[OC(O)(CH═C(CH3)CH═CH)2C6H6(CH3)3]2] | – | – | – | – | – | 0% | 19% | 25% | 28% | 32% | – | – | – | – |
| AlPcOSi(CH3)2(CH2)3N(CH3)2 [Pc 1] | – | – | – | – | – | 0% | 27% | 39% | 46% | 49% | low photostability | – | – | – |
| SiPc[OC(O)(CH2)3(CH2CH═CH)3(CH2)4CH3]2 [Pc 298] | – | – | – | – | – | – | – | – | – | – | – | 0 12 21 27 33% | approximately twice as fast | – |
| SiPc[OC(O)(CH2)6(CH2CH═CH)3CH2CH3]z [Pc 297] | – | – | – | – | – | – | – | – | – | – | – | 0 3 5 6 9% | – | – |
| SiPc[OC(O)(CH2)16CH3]2 [Pc 294] | – | – | – | – | – | 0% | 1% | 1% | 1% | 2% | – | – | – | – |
| SiPc[OCH2CH═C(CH3)(CH2)2CH═C(CH3)2]2 [Pc 302] | – | – | – | – | – | 0% | 19% | 60% | 74% | 81% | – | – | – | stable in the dark |
